Measured values: patent US8426369B2, “Prevention and treatment of colon cancer” (Rutgers, The State University of New Jersey, priority 2006, dated 2013)

How the values were obtained:
[1] = 25 mg pterostilbene/kg diet, hypercholesterolemic hamsters; cited from earlier work
cleaved PARP = test: Western blot of cleaved PARP in HT-29 cells (apoptosis marker); assay type: cell-based, human; conditions: 9 h or 18 h
Method: (§1) The cells were incubated with different concentrations of pterostilbene for 1, 2 and 3 days, and cell proliferation was estimated by measuring [^3H]thymidine incorporated into DNA. […] In order to evaluate whether pterostilbene potentiates cell cycle arrest or apoptosis in HT-29 cells, the effect of pterostilbene on the proteins regulating the cell cycle and/or apoptosis pathways was examined. Cells treated with pterostilbene for 9 h or 18 h were harvested and protein samples were analyzed by Western blotting (FIG. 8B).
(§2) The cell culture conditions and the reagents used in this example were described in Example 32. Whole cell extracts were collected after the various treatments and analyzed by western blotting. The protein samples were separated on 4-15% SDS-PAGE gels (Biorad, Hercules, Calif.) followed by transfer to a polyvinylidene fluoride membrane. The membranes were blocked with 5% milk in Tris buffer for 1 h and then incubated with the appropriate primary antibody solutions overnight at 4° C. The membranes were washed with Tris buffer, and incubated with horseradish peroxidase conjugated secondary antibody solutions for 1 h at room temperature.
(§3) The protein bands were visualized using a chemiluminescence based kit from Amersham Biosciences (Buckinghamshire, UK). […]

p-Akt = test: Western blot of p-Akt in cytokine-treated HT-29 cells; assay type: cell-based, human
Method: as §2
The protein bands were visualized using a chemiluminescence based kit from Amersham Biosciences (Buckinghamshire, UK). The primary antibodies against iNOS, COX-2, IκBα, cyclin D1, c-myc (Santa Cruz Bio-technology, Santa Cruz, Calif.), phospho-STAT3, phospho-Erk1/2, phospho-JNK1/2, phospho-p38, phospho-Akt, phospho-ATF2, phospho-Elk1, PARP (Cell Signaling Technology Inc., Beverly, Mass.) and actin (Sigma, St. Louis, Mo.) and secondary antibodies (Santa Cruz Biotechnology, Santa Cruz, Calif.) were used for probing the abundance of the target protein in the samples.

p27 = test: Western blot of p27 in HT-29 cells; assay type: cell-based, human; conditions: HT-29, data not shown
Method: as §1, §2, §3

COX-2 = test: Cytokine-induced COX-2 protein expression in HT-29 cells (Western blot); assay type: cell-based, human
Method: (§4) Human colon carcinoma cell lines HT-29 was obtained from the American Type Culture Collection (Manassas, Va.). The cells were maintained in Dulbecco's modification of Eagle's medium (DMEM) supplemented with 10% FBS and 1% penicillin/streptomycin at 37° C. and 5% CO2. The cytokine mixture, consisting of 10 ng/ml of TNF-α, IFN-γ and LPS, was used to induce iNOS and COX-2, unless otherwise mentioned. The cells were treated with the test compound either alone or in combination with cytokines for different time intervals and harvested for protein or RNA.
as §2, §3

p65 subunit of NF-κB = test: Nuclear protein level of p65 subunit of NF-κB in HT-29 cells; assay type: cell-based, human; conditions: HT-29, data not shown
[2] = rats; cited from earlier work
c-myc = test: Western blot of c-myc in HT-29 cells; assay type: cell-based, human; conditions: 9 h or 18 h, especially at 9 h
Method: as §1, §2, §3

TGF-β ligands = test: Induction of TGF-β ligands in HT-29 cells; assay type: cell-based, human; conditions: HT-29, data not shown
Text: The significance of the transforming growth factor (TGF-β) pathway in down-regulating iNOS expression by pterostilbene was also investigated since TGF-β is a very potent inhibitor of iNOS and cytokines regulate Smad signaling of the TGF-β pathway. However, there was no effect of pterostilbene on activated Smad levels (p-Smad3) or in inducing TGF-β ligands (data not shown).

HT-29 cells = test: [3H]Thymidine incorporation cell proliferation assay in HT-29 cells; assay type: cell-based, human; conditions: Homo sapiens, HT-29, 30 μM at 3 days, read-out: inhibition of DNA synthesis
Method: The stilbenes illustrated in FIG. 4 were also used to investigate their ability to inhibit cell proliferation in HT-29 cell line. In this experiment, HT-29 cells (20,000 cells/well in 24-well plate) were treated with the respective stilbenes (each used either at 30 μM or 3 μM) in 10% FBS/DMEM for three days.
as §4
HT-29 cells were plated at a density of 20,000 cells/well in a 24 well plate and treated with varying concentrations of pterostilbene for a period of 1, 2 or 3 days at 37° C. Before harvest, the cells were incubated with 1 μCi [^3H]thymidine for 4 h at 37° C. and were washed with phosphate buffered saline. The cells were precipitated with cold 10% trichloroacetic acid for 10 min and solubilized with 0.5 ml solubilization buffer (0.2 M NaOH, 40 μg/ml salmon sperm DNA) for 2 h at room temperature. The lysate was transferred to 5 ml Ecolume and the [3H]thymidine incorporated into the DNA of HT-29 cells was determined using a scintillation spectrometer (Beckman Coulter, Fullerton, Calif.).

[3] = test system: proliferating cell nuclear antigen (PCNA); test: PCNA immunostaining and labeling index of colon sections; assay type: in vivo, male F344 rats; conditions: 40 ppm in diet, AOM-treated rats
Method: Total number of ACF/colon and multiple aberrant crypts/focus were counted and the data were analyzed by Student's t-test. The PCNA labeling index (PI) was calculated as the [(number of positive cells)/(total number of cells)]×100 for each field which is averaged to get the PI for each section. The significance of treatment between the groups was analyzed by Student's t-Test.
Animals were treated as described in Example 27. Colon samples from each group were harvested at autopsy and fixed in 10% formalin for 24 hr. They were sectioned into 8 to 10 segments, paraffin embedded, and microtomed into 4 μm thick tissue sections. The slides were incubated overnight at room temperature with antibody to proliferating cell nuclear antigen (PCNA) (1:1000 diluted, BD Pharmingen, San Diego, Calif.), iNOS (1:100 diluted, Santa Cruz Biotechnology, Santa Cruz, Calif.), or mucin MUC2 (1:250 diluted, Santa Cruz Biotechnology, Santa Cruz, Calif.).
The slides were incubated with the biotinylated secondary antibody, and then with avidin/biotinylated peroxidase complex for 30 min at room temperature (Vector Labs, Burlingame, Calif.), and were incubated with […] (DAB) substrate. The sections were then counter-stained with Modified Harris Hematoxylin. The images were taken randomly at 400× using Zeiss AxioCam HRc camera fitted to a Zeiss Axioskope 2 Plus microscope. […]

## COc1cc(/C=C/c2ccc(O)cc2)cc(OC)c1 [pterostilbene, (E)-4-(3,5-dimethoxystyryl)phenol]
[1]
  plasma cholesterol and lipoproteins: lowered plasma cholesterol and lipoproteins
Cleaved PARP
  level of cleaved PARP: increased
p-Akt
  level of p-Akt: did not change
p27
  induction of p27: no induction
COX-2; 30 μM, 9, 12 and 15 h
  induction of COX-2 by the cytokine mixture: markedly blocked
COX-2; different concentrations
  induction of COX-2 by the cytokine mixture, different concentrations: dose-dependent manner
p65 subunit of NF-κB
  nuclear protein levels of the p65 subunit of NF-κB: remained high and unaltered
[2]
  serum glucose: lower serum glucose
c-myc
  c-myc level: effective in reducing
TGF-β ligands
  inducing TGF-β ligands: no effect
HT-29 cells
  inhibition at 30 µM: 71 ± 3%
[3]
  PCNA positive cells (%) of colon tissue: 44.2±2.9%
